From BigSolDB 2.1

OC(Cn1cncn1)(Cn1cncn1)c1ccc(F)cc1F
solubility (mole fraction)
Details | in 1,4-dioxane | in THF | in chloroform | in ethanol | in methanol | in n-butanol | in n-propanol
298.15 K | 0.0124 | 0.0121 | 0.0135 | 0.011 | 0.0141 | 0.0058 | 0.0115
303.15 K | 0.0165 | 0.0155 | 0.0136 | 0.0147 | 0.0193 | 0.0066 | 0.0127
308.15 K | 0.0194 | 0.0197 | 0.0139 | 0.017 | 0.0286 | 0.008 | 0.0148
313.15 K | 0.0219 | 0.0225 | 0.0148 | 0.0231 | 0.0422 | 0.0102 | 0.0175
318.15 K | 0.0257 | 0.0273 | 0.016 | 0.0284 | 0.06 | 0.0132 | 0.021
323.15 K | 0.0304 | 0.0331 | 0.0181 | 0.0354 | 0.088 | 0.016 | 0.0278
